Patent US8686115B2, “Compositions and methods for quantitatively monitoring lipids” (The Board of Trustees of the University of Illinois, priority 2009, dated 2014)

Columns and labels:
[1] = molecular target: T1, DAN-eENTH: epsin 1 ENTH domain variant M10C/C96A/S4W, SEQ ID NO: 2, labeled with DAN at C10 (Homo sapiens, UniProt Q9Y6I3, C96A/M10C/S4W); experiment: Ratiometric (FB/FG) two-photon microscopy of DAN-eENTH binding to PtdIns(4,5)P2 in GUVs; conditions: FB/FG versus [PtdIns(4,5)P2]; POPC/POPS/PtdIns(4,5)P2 (80-x:20:x) GUVs; 37° C.; read-out: Kd for PtdIns(4,5)P2 (FB/FG ratiometric analysis)
T1 construct: The Epsin1 ENTH domain (1-158 amino acids) was subcloned; GST (C, cleaved yes); made in house; host or cells: E. coli BL21 RIL codon plus
T1 sequence (Q9Y6I3 1-158 S4W/M10C/C96A): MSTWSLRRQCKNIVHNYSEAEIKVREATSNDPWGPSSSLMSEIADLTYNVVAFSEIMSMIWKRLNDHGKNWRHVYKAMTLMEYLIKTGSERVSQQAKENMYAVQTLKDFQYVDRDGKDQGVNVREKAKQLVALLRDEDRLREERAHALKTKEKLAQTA
Method: The background correction for FB/FG values was unnecessary because FB=0 in the absence of PtdIns(4,5)P2. […] The theoretic curve was then constructed using these parameters.
To calibrate the fluorescence microscope and the DAN-eENTH sensor for cellular PtdIns(4,5)P2 quantification, we then determined by photon counting F values in the blue channel (FB; observed with a 436±10 band pass filter) and the green channel (FG; observed with a 525±25 band pass filter) when DAN-eENTH was added to the solution of giant unilamellar vesicles (GUV) with the composition of POPC/POPS/PtdIns(4,5)P2 (80-x:20:x with x=0-3). […] The resulting FB versus the surface concentration of PtdIns(4,5)P2 ([PtdIns(4,5)P2]s; see Methods for calculation) (FIG. 2C) or (FB/FG) versus [PtdIns(4,5)P2]s (FIG. 2d) calibration curve was used for ensuing PtdIns(4,5)P2 quantification in GUV and in mammalian cells. With respect to FIG. 5, the bar indicates 10 μm and the radius of this GUV is measured as […]. […]
In vitro calibration of our DAN-eENTH sensor was performed using GUVs composed of POPC/POPS/PtdIns(4,5)P2 (80-x:20:x) (x=0-3 mol %). […] These GUV were mixed with DAN-eENTH in the concentration range of 0-500 nM and spatiotemporally resolved fluorescence measurements were carried out at 37° C. using the custom-built multi-photon, multi-channel microscope that was described previously 13. […]

PLCδ-PH (PLCδ PH domain) = molecular target: T2, PLCδ-PH (PLCδ PH domain) (Homo sapiens, UniProt P51178); experiment: SPR equilibrium binding of PLCδ-PH to phosphoinositide-containing LUVs; conditions: POPC/POPS/PtdIns(4,5)P2 (77:20:3) LUVs, 20 mM Tris-HCl pH 7.4, 0.16 M KCl, read-out: Kd for PtdIns(4,5)P2
T2 sequence (P51178 21-130 limits assumed): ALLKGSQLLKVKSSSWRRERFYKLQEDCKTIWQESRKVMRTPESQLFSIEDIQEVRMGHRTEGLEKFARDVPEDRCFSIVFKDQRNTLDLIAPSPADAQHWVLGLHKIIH
Method: With respect to FIG. […] The proteins were incubated with a given concentration of IP3 for 5 minutes before injecting into the SPR instrument. Kinetic SPR measurements were performed in 20 mM Tris-HCL, pH 7.4, containing 0.16 KCl. […] A lower concentration of DAN-eENTH was used than that of PLCδ PH because the former has much higher affinity that the latter.
LUVs were prepared by extrusion using a 100 nm-pore membrane. GUVs were prepared by electroformation. The lipid mixture were prepared in chloroform/methanol (3:1) at a total concentration of 0.4 mg/ml, then the lipid solution was spread onto the indium-tin oxide electrode surface and the lipid was dried under vacuum to form a uniform lipid film. Vesicles were grown in a sucrose solution (350 mM) while an electric field (3V, 20 Hz frequency) was applied for 5 hour at room temperature. After 1 to […] of sucrose-loaded GUV solution was added into a well glued onto a coverslip that was placed on the microscope stage. The well contained […] of 20 mM Tris-HCl buffer, pH 7.4, with 0.16 M KCl solution. The diameter of GUVs ranged from 5 to 30 μm.

CCCCCCCCCCCCCCCC(=O)OC[C@H](COP(=O)(O)O[C@@H]1[C@H](O)[C@H](O)[C@@H](OP(=O)(O)O)[C@H](OP(=O)(O)O)[C@H]1O)OC(=O)CCCCCCCCCCCCCCC [PtdIns(4,5)P2, phosphatidylinositol-4,5-bisphosphate]
Kd [1]: 44 ± 6 nM
Kd (PLCδ-PH (PLCδ PH domain)): 180 nM
